A short description of experiment [1]: Inhibition of PGPH-like activity of 20S proteasome in human HL60 cells using Z-nLPnLDaminoluciferin as substrate pretreated for 2 hrs followed by substrate addition by […] assay.
Experiment [2] is described as follows: Inhibition of trypsin-like activity of 20S proteasome in human HL60 cells using Z-LRRaminoluciferin as substrate pretreated for 2 hrs followed by substrate addition by […] assay.

Each structure is given as a SMILES string.

As a reminder, the IC50 is the concentration at which inhibition is half-maximal.

Take `CC(C)C[C@H](NC(=O)OCc1ccccc1)C(=O)N[C@@H](Cc1ccc2ccccc2c1)C(=O)N1CCC[C@H]1B(O)O`: the IC50 in experiment [1] came to 1250 nM; in experiment [2] it was 1660 nM.
